In patent publication US20140128357A1, “METHODS OF PRODUCING AND USING BRASSINOSTEROIDS TO PROMOTE GROWTH, REPAIR AND MAINTENANCE OF SKELETAL MUSCLE AND SKIN” (Rutgers University, priority 2010, published 2014):

What was measured:
[1] = tested on: cutaneous wound in C57BL/6J mice; assay: Mouse cutaneous injury model of wound healing; assay type: in vivo
Experimental: Under volatile anesthesia (5% isoflurane to effect), the shoulder and back region of each animal was shaved. A sharp punch (ID 6 mm) over their lumbar spine was applied to remove the skin, including panniculus carnosus and adherent tissues. Test substances were administered topically (TOP), immediately following cutaneous injury, once daily for 10 consecutive days. […] Wounds were traced onto clear plastic sheets and were measured by use of an ImageJ program (rsbweb.nih.gov/ij/), online from the National Institutes of Health (NIH). ImageJ is a public domain, Java-based image processing program developed at the NIH. Time to wound closure was estimated by comparing the area of the wound undergoing treatment to the areas of the wound undergoing control treatments. The percent closure of the wound (%) was calculated, and wound half-closure time (the time at which 50% of the cutaneous wound is closed, CT50) was analyzed by linear regression using Graph-Prism (Graph Software USA). At the end of experiment (10 days after the induction of the wound), animals were euthanized by CO2 gas inhalation. Blood was collected by heart puncture. Wound tissue and muscle were collected for immunohistochemical analyses and wound healing factor assays. HB increased the percent of wound closure in vivo in a mouse model of wound closure (FIG. 13). […] Twenty seven six-week-old male C57BL/6J mice, obtained from the Jackson Laboratory (Bar Harbor, Me.), were housed in individual chambers in a room maintained at a constant temperature with 12 h light-dark cycle. Mice had free access to food and water. Mice were allowed to adapt to new conditions for seven days and handling the mice was performed daily during this time to reduce the stress of physical manipulation. Mice were randomized into groups (n=9) according to body weight one day prior to dosing. Under volatile anesthesia (5% isoflurane to effect), the shoulder and back region of each animal was shaved. A sharp punch (ID 6 mm) over lumbar spine was applied to remove the skin including panniculus carnosus and adherent tissues. […] Pharmacol. 77: 1117-1124, 2009) as a positive control) was administered topically, immediately following cutaneous injury, and then daily for 10 days. To investigate the kinetics of wound healing, wound size was photographed and measured every two days with ImageJ software (rsbweb.nih.gov/ij/). […] The percent closure of the wound (%) was calculated, and time at which 50% of the cutaneous wound was closed (CT50) was analyzed by linear regression. […] Wound sizes were photographed and measured every 2 days for 10 days. Wound closure (%) relative to day 1 was determined every 2 days, and CT50 was calculated by linear regression. […]

[2] = tested on: collagen and elastin in skin; assay: Collagen and elastin in skin of rats given oral HB (Example 16); assay type: in vivo, rat; conditions: 20 and 60 mg/kg oral daily 24 d, written in present tense
Experimental: To evaluate the potential anabolic effects of plant brassinosteroids on the skin of animals, 20 and 60 mg/kg body weight of HB (HB20 and HB60, respectively) are orally administered daily to healthy rats fed normal diet for 24 d.
Collagen and elastin production are measured in the skin of animals treated with HB versus their control counterparts. Protein degradation of collagen and elastin is measured in the skin of animals treated with HB versus their control counterparts, e.g., by collagen or elastin ELISAs. The amount of collagen and elastin protein present in the skin of animals treated with HB is measured versus their control counterparts.

[3] = tested on: 3T3 mouse fibroblasts; assay: Cell proliferation, BrdU assay; assay type: cell-based; conditions: 24 h
Experimental: 3T3 fibroblasts were seeded in a 96-well flat bottom plate at a density of 1×10^4 cells/well. Cell viability was measured by an MTT (3-(4,5-Dimethylthiazol-2-yl)-2,5-diphenyltetrazolium bromide) assay in triplicate (0.3-30 μM of test substance for […]) essentially as described by Mosmann (J. Immunol. Methods 65, 55-63, 1983) and quantified spectrophotometrically at 550 nm using a microplate reader (Molecular Devices, Sunnyvale, Calif.). […] For cell proliferation studies, cells were treated in triplicate with 0.1-10 μM of test substance for 24 h and assayed using a BrdU (5-bromo-2′-deoxyuridine) kit from Amersham (Uppsala, Sweden).

[4] = tested on: TNF-α, TGF-β and ICAM-1 mRNA in wounds; assay: Cytokine and chemokine mRNA in wound tissue, qPCR; assay type: in vivo; conditions: day 10 post-wounding, 10 μg/mouse topically
Experimental: Cutaneous would healing is characterized by an initial inflammatory response. To evaluate the effect of brassinosteroids on inflammation in wound healing, mRNA levels of proinflammatory cytokines TNF-α and TGF-β and an adhesion chemokine ICAM-1 were measured in the wound tissue of control and treated mice on day 10 post-wounding and treatment with HB, positive control (CGS-21680), or negative control (vehicle).
Total RNA was extracted from fibroblasts using Trizol (Invitrogen, Carlsbad, Calif.). RNA was quantified spectrophotometrically by absorbance measurements at 260 and 280 nm using the NanoDrop reader (NanoDrop Technologies, Wilmington, Del.). Quality of RNA was assessed by gel electrophoresis. RNA was then treated with DnaseI (Invitrogen, Carlsbad, Calif.) to remove traces of DNA contamination and the cDNAs were synthesized with 2.5 μg of RNA using Stratascript reverse transcriptase (Stratagene, Santa Clara, Calif.) according to the manufacturers' protocols. Quantitative PCR was performed in duplicate essentially as described previously (Komarnytsky et al., Int. J. Obes. 35: 236-43, 2011) using the following gene-specific primers (IDT, Coralville, Iowa) selected using the Primer Express 2.0 software (Applied Biosystems, Foster City, Calif.): β-actin, forward primer 5′-GGGAAATCGTGCGTGACATT-3′ (SEQ ID NO: 5), and reverse primer 5′-GCG GCA GTG GCC ATC TC-3′ (SEQ ID NO: 6). Target gene expression of the housekeeping gene β-actin was assigned a value of 1. Samples were subjected to a melting curve analysis to confirm the amplification specificity. The relative change in the […] with respect to the endogenous control gene was determined using 2ΔΔCT method (Winer et al., Anal. Biochem. 270: 41-9, 1999).

[5] = 10 μg/mouse/day topically for 10 days

CC[C@@H](C(C)C)[C@H](O)[C@@H](O)[C@@H](C)[C@H]1CC[C@H]2[C@@H]3COC(=O)[C@H]4C[C@H](O)[C@H](O)C[C@]4(C)[C@H]3CC[C@]12C [Compound 1, (22S,23S,24S)-2α,3α,22,23-tetrahydroxy-24 ethyl-β-homo-7-oxo-5α-cholestane-6-one]
CT50, time at which 50% of the cutaneous wound is closed [1, 5]: 5.4 ± 0.3 days | cutaneous wound healing compared with vehicle [1, 5]: significantly improved | increase in speed of wound closure relative to control mice ([1]; 10 μg/mouse/day topically, percent of original wound size): 2 fold | collagen and elastin production in skin [2]: increases collagen and elastin production in skin | Cell proliferation at 5 μM, % of control [3]: 37.7 ± 3.4 % | ICAM-1 mRNA in wound tissue [4]: significant suppression | TGF-β mRNA in wound tissue [4]: weak effect on the downregulation | TNF-α mRNA in wound tissue [4]: nearly complete downregulation
